The conditions of series [1]: in vivo; cited from earlier work.
The subject of series [2] is A549 cells. The experiment in a line: Animal model of non-small cell lung cancer (A549 tumors in nude mice). The following applies: 30 mg/kg, oral gavage; end of the therapy (20 days); ratio of mean tumor volume in therapeutic and control groups. It is filed as in vivo, mouse. On the procedure: Male nude mice were used for this experiment. A549 cells (1×10^7) in 0.2 ml of Matrigel (BD Pharmingen) solution were injected in left mice leg upon ketamine-xylazine anesthesia. After a week of cell inoculation mice were separated into control and therapeutic groups. Control group mice received 0.3 ml of 0.5% methylcellulose solution, therapeutic group received 0.3 ml of 0.5% methylcellulose with suspended therapeutic compound (30 mg/kg). Tumor volume (mm^3) was calculated as follows: V=L×W^2×0.5. Compounds were administered using oral gavage. Treatment continued for 20 days. Ratio of the mean tumor volume in therapeutic and control groups (% T/C) was used to evaluate efficacy of tumor growth inhibition upon the end of the therapy (20 days). Obtained data was subjected to statistical reliability Dunnet test. Efficacies of tested compounds in 30 mg/kg dose are depicted in Table 5.

Regarding `Cc1nc(Nc2ncc(C(=O)Nc3c(C)cccc3Cl)s2)cc(N2CCN(CCO)CC2)n1` [dasatinib], in series [1], the bioavailability (commonly the share of a dose that reaches the circulation, judged against a reference dose that is usually intravenous) is on record as 14-34%. Regarding `Cc1cn(-c2cc(NC(=O)c3ccc(C)c(Nc4nccc(-c5cccnc5)n4)c3)cc(C(F)(F)F)c2)cn1` [nilotinib], the bioavailability in series [1] is 30%. Regarding `Cc1ccc(C(=O)Nc2ccc(CN3CCN(C)CC3)c(C(F)(F)F)c2)cc1C#Cc1cnc2cccnn12` [ponatinib], the bioavailability in series [1] was 20%. In the case of `Cc1ccc2nnc(C#Cc3cc(C(=O)Nc4ccc(CN5CCN(C)CC5)c(C(F)(F)F)c4)ccc3C)n2n1` [drawing 144], the “% T/C” value in series [2] is less than 40%.

Source of the values: patent publication US9522910B2, “Protein kinase inhibitors (variants), use thereof in treating oncological diseases and a pharmaceutical composition based thereon” (Obshchestvo s ogranichennoy otvetstvennostyou “Fusion …, priority 2011, dated 2016).
